Data on six compounds can be found in ChEMBL document CHEMBL3400100, “Streptococcus mutans sortase A inhibitory metabolites from the flowers of Sophora japonica” (Bioorg Med Chem Lett, 2015).

Series [1] can be described thus: Inhibition of Streptococcus mutans OMZ65 sortase A lacking N-terminal membrane anchor domain (1 to 40 amino acids) expressed in Escherichia coli TOP10 using Dabcyl-QALPETGEE-Edans substrate incubated for 1 hr by fluorescence spectrophotometry.
The test system of series [2] is Streptococcus mutans. Put plainly: Toxicity against Streptococcus mutans assessed as inhibition of microbial growth. The following applies: in vitro. The series is classed as organism-based.
The test system of series [3] is Streptococcus mutans. Briefly: Inhibition of sortase A in Streptococcus mutans NG8 assessed as reduction in saliva-induced bacterial aggregation at 58.6 to 234.4 uM by spectrophotometry.

As to `Cc1occc(=O)c1O[C@@H]1O[C@H](COC(=O)CC(C)(O)CC(=O)O)[C@@H](OC(=O)/C=C\c2ccc(O)cc2)[C@H](O)[C@H]1O` (some centres not stated), the IC50 – broadly, the concentration at which inhibition is half-maximal – in series [1] stood at 58.6 µM. Also, the MIC in series [2] is above 345.9 µM. In addition, the inhibition result in series [3] is “Dose-dependent effect”.
With `Cc1occc(=O)c1O[C@@H]1O[C@H](COC(=O)CC(C)(O)CC(=O)O)[C@@H](OC(=O)/C=C/c2ccc(O)cc2)[C@H](O)[C@H]1O` (some centres not stated), in series [1], the IC50 amounted to 94.3 µM. Moreover, the MIC in series [2] was above 345.9 µM.
The matching figures for `COc1cc(/C=C/C(=O)CC(=O)/C=C/c2ccc(O)c(OC)c2)ccc1O` [CURCUMIN]: 91.5 µM and above 542.9 µM.
The matching figures for `COc1cc(-c2oc3cc(O)cc(O)c3c(=O)c2O[C@@H]2O[C@H](CO[C@@H]3O[C@@H](C)[C@H](O)[C@@H](O)[C@H]3O)[C@@H](O)[C@H](O)[C@H]2O)ccc1O` [NARCISSIN]: 62.1 µM and above 320.2 µM.
The matching figures for `C[C@@H]1O[C@@H](OC[C@H]2O[C@@H](Oc3c(-c4ccc(O)cc4)oc4cc(O)cc(O)c4c3=O)[C@H](O)[C@@H](O)[C@@H]2O)[C@H](O)[C@H](O)[C@H]1O` [NICOTIFLOROSIDE]: 60.7 µM and above 336.4 µM.
In the case of Para-Hydroxymercuribenzoic acid, the IC50 in series [1] amounted to 112 µM.
